Read-outs that look alike come from different tables or passages of the source.

IC50 data for 6 compounds are collected here from patent US11981658B2, “Substituted aminopyridine compounds as EGFR inhibitors” (YUHAN CORPORATION, priority 2021, dated 2024).

One experiment has as its target EGFR wildtype (WT) (Homo sapiens, UniProt P00533). As to the kind of experiment: Biochemical EGFR kinase inhibition assay (Lance Ultra TR-FRET), wildtype. Put shortly:
(§1)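 Enzyme reactions lasted 1 hour at room temperature with test compounds between 0.003 and 10 μM, followed by 10 mM EDTA quench.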
(In general: Time-resolved FRET reads energy transfer from a long-lived donor to a nearby acceptor.)

Another experiment deals with EGFR Del19/T790M/C797S (Homo sapiens, UniProt P00533, C797S/DEL746-750/T790M). As to the kind of experiment: Biochemical EGFR kinase inhibition assay (Lance Ultra TR-FRET), triple mutant del19/T790M/C797S. The method, boiled down: as §1
Another experiment deals with EGFR L858R/C797S (Homo sapiens, UniProt P00533, C797S/L858R). As to the kind of experiment: Biochemical EGFR kinase inhibition assay (Lance Ultra TR-FRET), double mutant L858R/C797S. The method, boiled down:
as §1

The next experiment concerns the target EGFR Del19/C797S (Homo sapiens, UniProt P00533, C797S/DEL746-750). As to the kind of experiment: Biochemical EGFR kinase inhibition assay (Lance Ultra TR-FRET), double mutant del19/C797S. Put shortly:
as §1

In another experiment the target is EGFR L858R/T790M/C797S (Homo sapiens, UniProt P00533, C797S/L858R/T790M). As to the kind of experiment: Biochemical EGFR kinase inhibition assay (Lance Ultra TR-FRET), triple mutant L858R/T790M/C797S. Put shortly:
as §1

Setting [1] is: Km ATP, read-out: IC50 WT (nM) Km ATP.
[2] abbreviates: IC50 Del19/T790M/C797S (nM), 100 μM ATP.
Where [3] appears, read: Km ATP, read-out: IC50 Del19/T790M/C797S (nM) Km ATP.
Setting [4] is: IC50 L858R/C797S (nM), 100 μM ATP.
Where [5] appears, read: Km ATP, read-out: IC50 L858R/C797S (nM) Km ATP.
The mark [6] stands for this setting: IC50 Del19/C797S (nM), 100 μM ATP.
Where [7] appears, read: Km ATP, read-out: IC50 Del19/C797S (nM) Km ATP.
Where [8] appears, read: IC50 L858R/T790M/C797S (nM), 100 μM ATP.
[9] abbreviates: Km ATP, read-out: IC50 L858R/T790M/C797S (nM) Km ATP.

Sequence of EGFR L858R/T790M/C797S (P00533 25-1210 T790M/C797S/L858R): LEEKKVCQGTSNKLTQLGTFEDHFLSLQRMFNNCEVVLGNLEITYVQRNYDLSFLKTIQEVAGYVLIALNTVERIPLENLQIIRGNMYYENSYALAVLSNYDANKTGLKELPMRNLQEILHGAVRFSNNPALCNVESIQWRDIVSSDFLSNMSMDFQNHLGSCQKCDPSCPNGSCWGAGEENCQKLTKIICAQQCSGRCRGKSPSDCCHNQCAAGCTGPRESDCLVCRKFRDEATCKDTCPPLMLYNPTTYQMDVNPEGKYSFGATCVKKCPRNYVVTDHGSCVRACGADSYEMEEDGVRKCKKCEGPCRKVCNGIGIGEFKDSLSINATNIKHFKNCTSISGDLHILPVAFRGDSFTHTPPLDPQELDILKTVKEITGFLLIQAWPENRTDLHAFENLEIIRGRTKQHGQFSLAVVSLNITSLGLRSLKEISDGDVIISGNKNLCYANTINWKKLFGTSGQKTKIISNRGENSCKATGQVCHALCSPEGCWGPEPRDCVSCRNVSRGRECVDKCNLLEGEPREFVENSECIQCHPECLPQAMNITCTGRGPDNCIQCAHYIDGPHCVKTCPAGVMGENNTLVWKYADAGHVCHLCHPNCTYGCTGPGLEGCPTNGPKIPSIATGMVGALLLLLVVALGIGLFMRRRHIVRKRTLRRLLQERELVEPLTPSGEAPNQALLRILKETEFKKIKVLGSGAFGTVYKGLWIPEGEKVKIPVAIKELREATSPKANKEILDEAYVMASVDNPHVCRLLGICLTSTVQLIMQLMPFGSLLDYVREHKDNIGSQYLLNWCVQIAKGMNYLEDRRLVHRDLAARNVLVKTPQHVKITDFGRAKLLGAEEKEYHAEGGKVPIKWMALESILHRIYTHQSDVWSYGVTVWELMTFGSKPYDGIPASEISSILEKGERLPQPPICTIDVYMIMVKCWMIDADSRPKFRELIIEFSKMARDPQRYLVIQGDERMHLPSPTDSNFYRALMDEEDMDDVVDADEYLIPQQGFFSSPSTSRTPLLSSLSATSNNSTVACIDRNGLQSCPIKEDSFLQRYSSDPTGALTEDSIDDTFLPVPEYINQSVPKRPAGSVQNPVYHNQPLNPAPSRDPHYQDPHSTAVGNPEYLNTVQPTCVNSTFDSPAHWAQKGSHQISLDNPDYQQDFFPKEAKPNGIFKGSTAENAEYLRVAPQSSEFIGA
Sequence of EGFR wildtype (WT) (P00533 25-1210): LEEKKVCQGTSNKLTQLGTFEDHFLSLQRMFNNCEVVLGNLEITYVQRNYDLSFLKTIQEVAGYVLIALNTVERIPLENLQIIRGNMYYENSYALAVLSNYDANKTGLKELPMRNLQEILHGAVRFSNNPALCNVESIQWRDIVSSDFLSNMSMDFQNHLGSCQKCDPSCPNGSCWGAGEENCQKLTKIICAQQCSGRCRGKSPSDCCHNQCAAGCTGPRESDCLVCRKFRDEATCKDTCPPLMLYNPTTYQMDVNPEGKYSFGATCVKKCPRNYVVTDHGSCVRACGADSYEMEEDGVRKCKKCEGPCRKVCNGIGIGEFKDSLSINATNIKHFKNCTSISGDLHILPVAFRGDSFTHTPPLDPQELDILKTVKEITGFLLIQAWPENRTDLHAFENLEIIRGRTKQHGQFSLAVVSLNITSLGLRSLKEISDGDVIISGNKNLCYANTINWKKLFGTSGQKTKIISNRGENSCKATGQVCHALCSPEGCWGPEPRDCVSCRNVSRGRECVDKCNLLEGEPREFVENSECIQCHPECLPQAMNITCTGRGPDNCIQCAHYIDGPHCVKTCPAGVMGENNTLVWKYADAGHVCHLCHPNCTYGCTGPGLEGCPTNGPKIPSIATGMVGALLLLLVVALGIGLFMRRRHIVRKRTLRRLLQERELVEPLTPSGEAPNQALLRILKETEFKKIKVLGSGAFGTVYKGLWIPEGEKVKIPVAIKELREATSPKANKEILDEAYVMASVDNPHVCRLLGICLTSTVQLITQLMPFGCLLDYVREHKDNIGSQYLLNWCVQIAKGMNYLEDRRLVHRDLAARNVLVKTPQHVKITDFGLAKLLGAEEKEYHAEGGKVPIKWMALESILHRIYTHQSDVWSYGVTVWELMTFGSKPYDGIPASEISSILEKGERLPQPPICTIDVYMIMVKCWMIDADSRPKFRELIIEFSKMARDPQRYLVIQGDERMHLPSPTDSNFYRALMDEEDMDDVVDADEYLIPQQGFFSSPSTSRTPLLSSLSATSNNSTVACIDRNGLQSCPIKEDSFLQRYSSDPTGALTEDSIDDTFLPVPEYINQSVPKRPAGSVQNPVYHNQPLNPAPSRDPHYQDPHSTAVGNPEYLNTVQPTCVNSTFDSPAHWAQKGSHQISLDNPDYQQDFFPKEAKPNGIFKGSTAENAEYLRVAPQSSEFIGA
Sequence of EGFR Del19/C797S (P00533 with tags, fused parts or gaps DEL746-750/C797S): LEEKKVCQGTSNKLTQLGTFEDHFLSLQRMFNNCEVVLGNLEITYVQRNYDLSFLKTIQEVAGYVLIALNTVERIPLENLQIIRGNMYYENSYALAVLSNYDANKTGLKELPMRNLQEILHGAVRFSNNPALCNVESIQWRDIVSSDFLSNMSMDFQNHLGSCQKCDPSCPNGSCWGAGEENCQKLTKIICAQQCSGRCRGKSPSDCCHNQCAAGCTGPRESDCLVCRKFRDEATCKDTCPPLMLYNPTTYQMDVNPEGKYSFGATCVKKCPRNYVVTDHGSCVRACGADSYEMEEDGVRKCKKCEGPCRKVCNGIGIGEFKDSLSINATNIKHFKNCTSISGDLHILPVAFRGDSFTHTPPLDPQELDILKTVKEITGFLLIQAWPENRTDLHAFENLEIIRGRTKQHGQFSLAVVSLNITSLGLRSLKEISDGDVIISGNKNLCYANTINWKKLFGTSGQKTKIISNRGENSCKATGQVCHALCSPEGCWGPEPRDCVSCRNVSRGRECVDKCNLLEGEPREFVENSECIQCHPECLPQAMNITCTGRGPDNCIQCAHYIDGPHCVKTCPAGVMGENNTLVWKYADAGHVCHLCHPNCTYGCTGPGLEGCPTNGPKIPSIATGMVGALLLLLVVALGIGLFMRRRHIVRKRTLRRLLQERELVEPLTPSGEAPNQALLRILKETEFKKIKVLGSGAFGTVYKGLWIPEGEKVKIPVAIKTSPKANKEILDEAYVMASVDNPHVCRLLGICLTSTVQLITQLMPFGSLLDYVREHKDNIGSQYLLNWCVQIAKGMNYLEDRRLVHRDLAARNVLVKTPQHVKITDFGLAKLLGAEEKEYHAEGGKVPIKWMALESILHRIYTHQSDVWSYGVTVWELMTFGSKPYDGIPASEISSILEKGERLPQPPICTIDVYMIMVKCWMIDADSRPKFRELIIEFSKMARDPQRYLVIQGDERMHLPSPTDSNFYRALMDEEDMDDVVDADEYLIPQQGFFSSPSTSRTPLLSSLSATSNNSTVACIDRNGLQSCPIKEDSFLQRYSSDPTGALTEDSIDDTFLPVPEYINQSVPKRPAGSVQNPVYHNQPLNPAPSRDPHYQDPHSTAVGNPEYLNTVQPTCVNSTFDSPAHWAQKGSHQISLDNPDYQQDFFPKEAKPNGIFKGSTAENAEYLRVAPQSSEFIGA
Sequence of EGFR L858R/C797S (P00533 25-1210 C797S/L858R): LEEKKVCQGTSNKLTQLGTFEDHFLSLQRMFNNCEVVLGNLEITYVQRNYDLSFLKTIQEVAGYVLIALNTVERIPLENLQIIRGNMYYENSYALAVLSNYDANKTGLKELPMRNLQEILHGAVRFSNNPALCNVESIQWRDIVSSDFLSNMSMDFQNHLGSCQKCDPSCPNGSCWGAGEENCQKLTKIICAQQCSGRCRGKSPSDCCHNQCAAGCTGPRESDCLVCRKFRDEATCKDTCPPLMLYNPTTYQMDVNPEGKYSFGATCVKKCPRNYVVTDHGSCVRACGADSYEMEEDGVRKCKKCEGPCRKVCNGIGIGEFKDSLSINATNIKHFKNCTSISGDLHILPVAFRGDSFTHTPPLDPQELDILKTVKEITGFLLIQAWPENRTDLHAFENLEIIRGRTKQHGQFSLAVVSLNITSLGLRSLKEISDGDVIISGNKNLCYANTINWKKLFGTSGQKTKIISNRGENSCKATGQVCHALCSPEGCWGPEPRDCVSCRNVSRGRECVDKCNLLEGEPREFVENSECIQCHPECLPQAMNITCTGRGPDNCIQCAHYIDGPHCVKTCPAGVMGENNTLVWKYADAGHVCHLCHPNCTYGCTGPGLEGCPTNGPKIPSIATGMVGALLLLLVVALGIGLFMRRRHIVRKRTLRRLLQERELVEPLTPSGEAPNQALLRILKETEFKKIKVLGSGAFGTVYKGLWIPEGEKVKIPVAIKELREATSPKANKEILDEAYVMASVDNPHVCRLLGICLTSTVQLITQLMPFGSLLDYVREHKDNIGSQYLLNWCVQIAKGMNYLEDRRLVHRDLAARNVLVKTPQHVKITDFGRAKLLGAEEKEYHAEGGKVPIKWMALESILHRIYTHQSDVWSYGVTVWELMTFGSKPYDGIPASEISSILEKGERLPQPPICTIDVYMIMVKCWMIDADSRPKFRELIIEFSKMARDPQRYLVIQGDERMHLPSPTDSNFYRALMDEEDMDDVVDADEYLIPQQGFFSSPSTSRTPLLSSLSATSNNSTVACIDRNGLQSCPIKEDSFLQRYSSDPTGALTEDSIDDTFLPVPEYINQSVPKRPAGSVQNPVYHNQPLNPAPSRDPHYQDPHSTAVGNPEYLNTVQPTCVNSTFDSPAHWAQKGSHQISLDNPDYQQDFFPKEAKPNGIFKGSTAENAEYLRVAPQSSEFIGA

With `CC(=O)N1CCC(n2cc(C#Cc3cnc(Nc4ccnc(-c5cnn(S(=O)(=O)C6CC6)c5)n4)cc3N3CCC(F)CC3)cn2)CC1` [Example 112, 1-(4-(4-((6-((2-(1-(Cyclopropylsulfonyl)-1H-pyrazol-4-yl)pyrimidin-4-yl)amino)-4-(4-fluoropiperidin-1-yl)pyridin-3-yl)ethynyl)-1H-pyrazol-1-yl)piperidin-1-yl)ethan-1-one], the IC50 on EGFR wildtype (WT) (IC50 WT (nM), 100 μM ATP) is greater than 10000 nM; at EGFR wildtype (WT) (setting [1]) it was 21.3 nM; against EGFR Del19/T790M/C797S (setting [2]), 1.5 nM; at EGFR Del19/T790M/C797S (setting [3]) it was 1.5 nM; at EGFR L858R/C797S (setting [4]), 17.1 nM; at EGFR L858R/C797S (setting [5]), 2.8 nM. The IC50 on EGFR Del19/C797S (setting [6]) is 5.2 nM; at EGFR Del19/C797S (setting [7]) it was 4.6 nM; against EGFR L858R/T790M/C797S (setting [8]), 2.8 nM; on EGFR L858R/T790M/C797S (setting [9]), 1.1 nM.
On to `CN1CC(n2cc(C#Cc3cnc(Nc4ccnc(-c5cnn(S(=O)(=O)C6CC6)c5)n4)cc3N3CCC(C)(CO)CC3)cn2)C1` [Example 148, (1-(2-((2-(1-(Cyclopropylsulfonyl)-1H-pyrazol-4-yl)pyrimidin-4-yl)amino)-5-((1-(1-methylazetidin-3-yl)-1H-pyrazol-4-yl)ethynyl)pyridin-4-yl)-4-methylpiperidin-4-yl)methanol], for which the IC50 is 47 nM on EGFR wildtype (WT) (IC50 WT (nM), 100 μM ATP); 0.4 nM at EGFR wildtype (WT) (setting [1]); 0.3 nM against EGFR Del19/T790M/C797S (setting [2]); 0.2 nM at EGFR Del19/T790M/C797S (setting [3]); 0.6 nM against EGFR L858R/C797S (setting [4]); 0.2 nM at EGFR L858R/C797S (setting [5]). The IC50 at EGFR Del19/C797S (setting [6]) stood at 0.3 nM; on EGFR Del19/C797S (setting [7]) it was 0.2 nM; against EGFR L858R/T790M/C797S (setting [8]) it was 0.2 nM; at EGFR L858R/T790M/C797S (setting [9]) it was 0.1 nM.
With `CC(C)n1cc(C#Cc2cnc(Nc3ccnc(-c4cnn(S(=O)(=O)C5CC5)c4)n3)cc2OC[C@H]2CC[C@H](CN(C)C)CC2)cn1` [Example 59, 2-(1-(Cyclopropylsulfonyl)-1H-pyrazol-4-yl)-N-(4-(((1r,4r)-4-((dimethylamino)methyl)cyclohexyl)methoxy)-5-((1-isopropyl-1H-pyrazol-4-yl)ethynyl)pyridin-2-yl)pyrimidin-4-amine], the IC50 against EGFR wildtype (WT) (IC50 WT (nM), 100 μM ATP) is greater than 10000 nM; at EGFR wildtype (WT) (setting [1]), 19.2 nM; against EGFR Del19/T790M/C797S (setting [2]) it was 1.4 nM; on EGFR Del19/T790M/C797S (setting [3]) it was 0.6 nM; on EGFR L858R/C797S (setting [5]), 1.7 nM; against EGFR Del19/C797S (setting [6]) it was 2.6 nM. For the same compound, the IC50 on EGFR Del19/C797S (setting [7]) was 1.1 nM; on EGFR L858R/T790M/C797S (setting [8]) it was 0.7 nM; at EGFR L858R/T790M/C797S (setting [9]), 0.1 nM.
As to `Cn1cnc(C#Cc2cnc(Nc3ccnc(-c4cnn(S(=O)(=O)C5CC5)c4)n3)cc2N2CCC(O)CC2)c1` [Example 213, 1-(2-((2-(1-(Cyclopropylsulfonyl)-1H-pyrazol-4-yl)pyrimidin-4-yl)amino)-5-((1-methyl-1H-imidazol-4-yl)ethynyl)pyridin-4-yl)piperidin-4-ol], the IC50 against EGFR wildtype (WT) (IC50 WT (nM), 100 μM ATP) is greater than 10000 nM; on EGFR Del19/T790M/C797S (setting [2]) it was 0.7 nM; against EGFR L858R/C797S (setting [4]) it was 37.5 nM; at EGFR Del19/C797S (setting [6]), 8.8 nM; at EGFR L858R/T790M/C797S (setting [8]), 1.4 nM.
As to `CN(C)C[C@H]1CC[C@@H](Nc2cc(Nc3ccnc(-c4cnn(S(=O)(=O)C5CC5)c4)n3)ncc2C#Cc2cnn(C(F)(F)F)c2)CC1` [Example 314, N^2-(2-(1-(Cyclopropylsulfonyl)-1H-pyrazol-4-yl)pyrimidin-4-yl)-N^4-((1s,4s)-4-((dimethylamino)methyl)cyclohexyl)-5-((1-(trifluoromethyl)-1H-pyrazol-4-yl)ethynyl)pyridine-2,4-diamine], the IC50 at EGFR wildtype (WT) (ATP at Km, read-out: IC50 WT (nM), Km ATP) was 52.6 nM; on EGFR wildtype (WT) (IC50 WT (nM), 100 μM ATP), greater than 10000 nM; on EGFR Del19/T790M/C797S (ATP at Km, read-out: IC50 Del19/T790M/C797S (nM), Km ATP) it was 0.7 nM; against EGFR Del19/T790M/C797S (setting [2]), 0.9 nM; on EGFR L858R/C797S (ATP at Km, read-out: IC50 L858R/C797S (nM), Km ATP), 3.4 nM; on EGFR L858R/C797S (setting [4]), 78.4 nM. Besides, the IC50 on EGFR Del19/C797S (ATP at Km, read-out: IC50 Del19/C797S (nM), Km ATP) amounted to 5.4 nM; at EGFR Del19/C797S (setting [6]), 9.9 nM; on EGFR L858R/T790M/C797S (ATP at Km, read-out: IC50 L858R/T790M/C797S (nM), Km ATP) it was 0.2 nM; on EGFR L858R/T790M/C797S (setting [8]), 0.2 nM.
In the case of `Cn1cc(C#Cc2cnc(Nc3ccnc(-c4cnn(S(=O)(=O)C5CC5)c4)n3)cc2N2CCCC(CO)CC2)cn1` (stereo not drawn) [Example 78, (1-(2-((2-(1-(Cyclopropylsulfonyl)-1H-pyrazol-4-yl)pyrimidin-4-yl)amino)-5-((1-methyl-1H-pyrazol-4-yl)ethynyl)pyridin-4-yl)azepan-4-yl)methanol], the IC50 is greater than 10000 nM against EGFR wildtype (WT) (IC50 WT (nM), 100 μM ATP); 163 nM on EGFR wildtype (WT) (setting [1]); 1.3 nM at EGFR Del19/T790M/C797S (setting [2]); 1.6 nM at EGFR Del19/T790M/C797S (setting [3]); 563 nM against EGFR L858R/C797S (setting [4]); 22.1 nM at EGFR L858R/C797S (setting [5]). Moreover, the IC50 at EGFR Del19/C797S (setting [6]) was 12.4 nM; on EGFR Del19/C797S (setting [7]), 10.4 nM; against EGFR L858R/T790M/C797S (setting [8]), 5.9 nM; at EGFR L858R/T790M/C797S (setting [9]) it was 0.7 nM.
